According to ChEMBL document CHEMBL3046540, “Statistically validated QSAR study of some antagonists of the human CCR5 receptor using least square support vector machine based on the genetic algorithm and factor analysis” (Med Chem Res, 2013):

biological target: C-C chemokine receptor type 5 (Homo sapiens, UniProt P51681); test: Antagonist activity at Homo sapiens (human) CCR5 receptor
Sequence (P51681 whole entry): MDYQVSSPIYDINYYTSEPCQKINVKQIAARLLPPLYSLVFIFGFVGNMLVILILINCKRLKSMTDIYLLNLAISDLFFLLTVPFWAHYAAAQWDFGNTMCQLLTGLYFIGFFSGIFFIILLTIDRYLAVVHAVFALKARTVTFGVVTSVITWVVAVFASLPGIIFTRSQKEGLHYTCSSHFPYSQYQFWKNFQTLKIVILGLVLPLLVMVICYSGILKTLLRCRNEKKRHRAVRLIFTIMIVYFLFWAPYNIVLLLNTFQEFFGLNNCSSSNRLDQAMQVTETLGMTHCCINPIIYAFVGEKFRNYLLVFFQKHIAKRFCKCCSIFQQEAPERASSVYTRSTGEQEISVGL

First: CCCN(C(=O)OCc1ccccc1C)C1CCN(CC[C@H](CN(C)S(=O)(=O)c2ccccc2)c2ccccc2)CC1
Second: CCCN(C(=O)OCc1ccccc1)C1CCN(CC[C@H](CN(C)S(=O)(=O)c2ccccc2)c2ccccc2)CC1
The IC50 of the first is 2.6-fold lower: 1.51 nM for the first, 3.98 nM for the second. The first is the more potent here.

Compared with CCN(C(=O)NCc1ccccc1)C1CCN(CCC(CN(C)S(=O)(=O)c2ccccc2)c2ccccc2)CC1 (configuration not stated), CN(CC(CCN1CCC(NC(=O)NCc2ccccc2)CC1)c1ccccc1)S(=O)(=O)c1ccccc1 (configuration not stated) is 40-fold lower in IC50: 100 nM for the first, 2.51 nM for the second.

First: C=CCN(C(=O)Nc1ccc([N+](=O)[O-])cc1)C1CCN(CCC(CN(C)S(=O)(=O)c2ccccc2)c2ccccc2)CC1 (configuration not stated)
Second: C=CCN(C(=O)c1ccc([N+](=O)[O-])cc1)C1CCN(CCC(CN(C)S(=O)(=O)c2ccccc2)c2ccccc2)CC1 (configuration not stated)
The IC50 of the first is 2.6-fold lower: 0.759 nM for the first, 2 nM for the second. The first is the more potent here.

Compared with CCN(C(=O)OC)C1CCN(CC[C@H](CN(C)S(=O)(=O)c2ccccc2)c2cccc(Cl)c2)CC1, CCCN(C(=O)NC)C1CCN(CCC(CN(C)S(=O)(=O)c2ccccc2)c2ccccc2)CC1 (configuration not stated) is 25-fold higher in IC50: 39.8 nM for the first, 1000 nM for the second. The first is the more potent here.

Compared with CCCN(C(=O)OCc1cccc(C(N)=O)c1)C1CCN(CC[C@H](CN(C)S(=O)(=O)c2ccccc2)c2ccccc2)CC1, CCCN(C(=O)OCc1ccc(C(N)=O)cc1)C1CCN(CC[C@H](CN(C)S(=O)(=O)c2ccccc2)c2ccccc2)CC1 is 3.8-fold higher in IC50: 0.794 nM for the first, 3.02 nM for the second. The first is the more potent here.

Compared with CNC(=O)NC1CCN(CCC(CN(C)S(=O)(=O)c2ccccc2)c2ccccc2)CC1 (configuration not stated), COC(=O)NC1CCN(CC[C@H](CN(C)S(=O)(=O)c2ccccc2)c2ccccc2)CC1 is 8.3-fold higher in IC50: 120 nM for the first, 1000 nM for the second.
